The values that follow come from patent publication US12569467B2, “Small molecules that treat or prevent viral infections” (priority 2022, dated 2026).

Structures are written as SMILES.

In the assay the test system is SARS-CoV-2 Spike protein pseudotyped lentiviral particles. The assay is described as follows: microbe, parasite or virus in culture. The assay is classed as cell-based. To be noted: Severe acute respiratory syndrome coronavirus 2, HEK293, read-out: half-maximal effective concentration (EC50), neutralization of SARS-CoV2 infection.

On to `O=C1Nc2ccccc2/C1=C\c1ccc(-c2cc(C(F)(F)F)cc(C(F)(F)F)c2)o1` [CD04872SC, 3-({5-[3,5-di(trifluoromethyl)phenyl]-2-furyl}methylidene)indolin-2-one], for which the EC50 was 248 µM.
